We go through 23 compounds from patent US10239873B2, “7-azaindole or 4,7-diazaindole derivatives as IKKϵ epsilon and TBK1 inhibitor and pharmaceutical composition comprising same” (GREEN CROSS CORPORATION, priority 2015, dated 2019).

The target in this assay is T1, TBK1 (Homo sapiens, UniProt Q9UHD2).
T1 construct: purchased Promega (Invitrogen is also named in the same bracket) V4158; PR8031B; V3991 (not assigned to the two kinases)
T1 sequence (Q9UHD2 1-729): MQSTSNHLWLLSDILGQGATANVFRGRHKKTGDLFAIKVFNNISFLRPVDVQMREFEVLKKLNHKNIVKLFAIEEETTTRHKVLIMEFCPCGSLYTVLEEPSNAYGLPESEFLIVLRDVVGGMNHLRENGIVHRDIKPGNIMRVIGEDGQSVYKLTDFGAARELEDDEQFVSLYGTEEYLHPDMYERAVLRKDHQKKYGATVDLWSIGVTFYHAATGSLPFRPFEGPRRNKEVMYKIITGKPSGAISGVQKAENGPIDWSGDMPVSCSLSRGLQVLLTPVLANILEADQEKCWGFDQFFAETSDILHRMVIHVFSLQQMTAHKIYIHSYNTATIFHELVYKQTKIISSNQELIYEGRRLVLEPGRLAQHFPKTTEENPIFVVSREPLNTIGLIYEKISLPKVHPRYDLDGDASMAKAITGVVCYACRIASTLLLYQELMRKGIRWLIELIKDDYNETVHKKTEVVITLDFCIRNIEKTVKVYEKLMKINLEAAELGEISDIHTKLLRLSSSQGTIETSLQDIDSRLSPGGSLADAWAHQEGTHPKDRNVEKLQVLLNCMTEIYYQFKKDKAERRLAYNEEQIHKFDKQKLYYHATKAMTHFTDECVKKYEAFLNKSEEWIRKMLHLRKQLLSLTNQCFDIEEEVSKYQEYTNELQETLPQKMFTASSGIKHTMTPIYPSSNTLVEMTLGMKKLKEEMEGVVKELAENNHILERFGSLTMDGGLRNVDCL
Nature of the assay: ADP-Glo Kinase Assay, inhibition activity on TBK1. Type of assay: biochemical. On the procedure:
Inhibition activities on IKKϵ and TBK1 were evaluated using the compounds of Examples 1 to 250.
The inhibition activities on IKKϵ and TBK1 were measured by a luminometer, IKKϵ/TBK1 Kinase Enzyme System (Promega, Ca# V4158; Invitrogen, PR8031B, Promega, Ca# V3991) and ADP-Glo Kinase Assay using ADP-Glo™ Kinase Analysis Kit (Promega, Ca# V9101) and a kinase reaction buffer [40 mM Tris(pH 7.5), 20 mM MgCl2, 0.1 mg/mL BSA] in accordance with the manufacturer's protocol.
Usually IC50 stands for the concentration at which inhibition is half-maximal. Turning to `CC(C)(C)OC(=O)N1CC=C(c2c[nH]c3ncc(-c4ccc(S(N)(=O)=O)cc4)cc23)CC1` [Example 152, tert-Butyl 4-(5-(4-sulfamoylphenyl)-1H-pyrrolo[2,3-b]pyridin-3-yl)-5,6-dihydropyridine-1(2H)-carboxylate], the IC50 was determined as 0.081 µM.

Take `CC(C)(C)OC(=O)N1CC=C(c2c[nH]c3ncc(-c4ccc(CN5CCOCC5)s4)cc23)CC1` [Example 153, tert-Butyl 4-(5-(5-(morpholinomethyl)thiophen-2-yl)-1H-pyrrolo[2,3-b]pyridin-3-yl)-5,6-dihydropyridine-1(2H)-carboxylate]: the half-maximal inhibitory concentration (IC50) came to 0.8 µM.

For `CC(C)(C)OC(=O)N1CC=C(c2c[nH]c3ncc(-c4ccc(CN5CCOCC5)cc4)cc23)CC1` [Example 154, tert-Butyl 4-(5-(4-(morpholinomethyl)phenyl)-1H-pyrrolo[2,3-b]pyridin-3-yl)-5,6-dihydropyridine-1(2H)-carboxylate], inhibition was half-maximal at 0.32 µM (IC50).

Compound `CC(C)(C)OC(=O)N1CC=C(c2c[nH]c3ncc(-c4ccc(C(=O)N5CCOCC5)cc4)cc23)CC1` [Example 155, tert-Butyl 4-(5-(4-(morpholine-4-carbonyl)phenyl)-1H-pyrrolo[2,3-b]pyridin-3-yl)-5,6-dihydropyridine-1(2H)-carboxylate] displayed an IC50 of 0.039 µM.

The compound `CC(C)(C)OC(=O)N1CC=C(c2c[nH]c3ncc(-c4cccc(CN5CCOCC5)c4)cc23)CC1` [Example 156, tert-Butyl 4-(5-(3-(morpholinomethyl)phenyl)-1H-pyrrolo[2,3-b]pyridin-3-yl)-5,6-dihydropyridine-1(2H)-carboxylate] showed an IC50 of 0.26 µM.

As for `CC(C)(C)OC(=O)N1CC=C(c2c[nH]c3ncc(-c4ccc(N5CCOCC5)nc4)cc23)CC1` [Example 157, tert-Butyl 4-(5-(6-morpholinopyridin-3-yl)-1H-pyrrolo[2,3-b]pyridin-3-yl)-5,6-dihydropyridine-1(2H)-carboxylate], the IC50 was determined as 0.36 µM.

The compound `CC(C)(C)OC(=O)N1CC=C(c2c[nH]c3ncc(-c4ccc(N5CCOCC5)cc4)cc23)CC1` [Example 158, tert-Butyl 4-(5-(4-morpholinophenyl)-1H-pyrrolo[2,3-b]pyridin-3-yl)-5,6-dihydropyridine-1(2H)-carboxylate] had an IC50 of 0.41 µM.

In turn, `CC(C)(C)OC(=O)N1CC=C(c2c[nH]c3ncc(-c4ccc(N5CCCCC5)cc4)cc23)CC1` [Example 159, tert-Butyl 4-(5-(4-(piperidin-1-yl)phenyl)-1H-pyrrolo[2,3-b]pyridin-3-yl)-5,6-dihydropyridine-1(2H)-carboxylate] returned a half-inhibitory concentration (IC50) of 0.6 µM.

As for `CC(C)(C)OC(=O)N1CC=C(c2c[nH]c3ncc(-c4ccc5c(c4)OCO5)cc23)CC1` [Example 160, tert-Butyl 4-(5-(benzo[d][1,3]dioxol-5-yl)-1H-pyrrolo[2,3-b]pyridin-3-yl)-5,6-dihydropyridine-1(2H)-carboxylate], the concentration for half-maximal inhibition (IC50) came to 2 µM.

For `COc1ccc(-c2cnc3[nH]cc(C4=CCN(C(=O)OC(C)(C)C)CC4)c3c2)cn1` [Example 161, tert-Butyl 4-(5-(6-methoxypyridin-3-yl)-1H-pyrrolo[2,3-b]pyridin-3-yl)-5,6-dihydropyridine-1(2H)-carboxylate], the IC50 turned out to be 0.6 µM.

Compound `CC(C)(C)OC(=O)N1CC=C(c2c[nH]c3ncc(-c4cccc(S(C)(=O)=O)c4)cc23)CC1` [Example 162, tert-Butyl 4-(5-(3-(methylsulfonyl)phenyl)-1H-pyrrolo[2,3-b]pyridin-3-yl)-5,6-dihydropyridine-1(2H)-carboxylate] had a half-maximal inhibitory concentration (IC50) of 0.078 µM.

Take `CNS(=O)(=O)c1cccc(-c2cnc3[nH]cc(C4=CCN(C(=O)OC(C)(C)C)CC4)c3c2)c1` [Example 163, tert-Butyl 4-(5-(3-(N-methylsulfamoyl)phenyl)-1H-pyrrolo[2,3-b]pyridin-3-yl)-5,6-dihydropyridine-1(2H)-carboxylate]: it took 0.059 µM to reach half-maximal inhibition (IC50).

`CC(C)(C)OC(=O)N1CC=C(c2c[nH]c3ncc(-c4ccc(S(C)(=O)=O)cc4)cc23)CC1` [Example 164, tert-Butyl 4-(5-(4-(methylsulfonyl)phenyl)-1H-pyrrolo[2,3-b]pyridin-3-yl)-5,6-dihydropyridine-1(2H)-carboxylate] had an IC50 of 0.25 µM.

Compound `CNS(=O)(=O)c1ccc(-c2cnc3[nH]cc(C4=CCN(C(=O)OC(C)(C)C)CC4)c3c2)cc1` [Example 165, tert-Butyl 4-(5-(4-(N-methylsulfamoyl)phenyl)-1H-pyrrolo[2,3-b]pyridin-3-yl)-5,6-dihydropyridine-1(2H)-carboxylate] had a 50% inhibitory concentration (IC50) of 0.028 µM.

`CC(=O)c1ccc(-c2cnc3[nH]cc(C4=CCN(C(=O)OC(C)(C)C)CC4)c3c2)cc1` [Example 166, tert-Butyl 4-(5-(4-acetylphenyl)-1H-pyrrolo[2,3-b]pyridin-3-yl)-5,6-dihydropyridine-1(2H)-carboxylate] showed a 50% inhibitory concentration (IC50) of 0.95 µM.

With `COC(=O)c1ccc(-c2cnc3[nH]cc(C4=CCN(C(=O)OC(C)(C)C)CC4)c3c2)cc1` [Example 167, tert-Butyl 4-(5-(4-(methoxycarbonyl)phenyl)-1H-pyrrolo[2,3-b]pyridin-3-yl)-5,6-dihydropyridine-1(2H)-carboxylate], the IC50 worked out at 1.6 µM.

As to `CC(C)(C)OC(=O)N1CC=C(c2c[nH]c3ncc(-c4ccc(C#N)cc4)cc23)CC1` [Example 168, tert-Butyl 4-(5-(4-cyanophenyl)-1H-pyrrolo[2,3-b]pyridin-3-yl)-5,6-dihydropyridine-1(2H)-carboxylate], the IC50 is 1.3 µM.

`CC(C)(C)OC(=O)N1CC=C(c2c[nH]c3ncc(-c4cccc(C#N)c4)cc23)CC1` [Example 169, tert-Butyl 4-(5-(3-cyanophenyl)-1H-pyrrolo[2,3-b]pyridin-3-yl)-5,6-dihydropyridine-1(2H)-carboxylate] registered an IC50 of 4.5 µM.

`COc1ccc(-c2cnc3[nH]cc(C4=CCN(C(=O)OC5CCCC5)CC4)c3c2)cc1F` [Example 171, Cyclopentyl 4-(5-(3-fluoro-4-methoxyphenyl)-1H-pyrrolo[2,3-b]pyridin-3-yl)-5,6-dihydropyridine-1(2H)-carboxylate] gave an IC50 of 0.88 µM.

The compound `CS(=O)(=O)c1cccc(-c2cnc3[nH]cc(C4=CCN(C(=O)OC5CCCC5)CC4)c3c2)c1` [Example 172, Cyclopentyl 4-(5-(3-(methylsulfonyl)phenyl)-1H-pyrrolo[2,3-b]pyridin-3-yl)-5,6-dihydropyridine-1(2H)-carboxylate] returned an IC50 of 0.055 µM.

Compound `CS(=O)(=O)c1ccc(-c2cnc3[nH]cc(C4=CCN(C(=O)OC5CCCC5)CC4)c3c2)cc1` [Example 173, Cyclopentyl 4-(5-(4-(methylsulfonyl)phenyl)-1H-pyrrolo[2,3-b]pyridin-3-yl)-5,6-dihydropyridine-1(2H)-carboxylate] came in with an IC50 of 0.12 µM.

In the case of `CCS(=O)(=O)c1cccc(-c2cnc3[nH]cc(C4=CCN(C(=O)OC5CCCC5)CC4)c3c2)c1` [Example 174, Cyclopentyl 4-(5-(3-(ethylsulfonyl)phenyl)-1H-pyrrolo[2,3-b]pyridin-3-yl)-5,6-dihydropyridine-1(2H)-carboxylate], it took 0.19 µM to reach half-maximal inhibition (IC50).

The compound `O=C(OC1CCCC1)N1CC=C(c2c[nH]c3ncc(-c4ccc(S(=O)(=O)C5CC5)cc4)cc23)CC1` [Example 175, Cyclopentyl 4-(5-(4-(cyclopropylsulfonyl)phenyl)-1H-pyrrolo[2,3-b]pyridin-3-yl)-5,6-dihydropyridine-1(2H)-carboxylate] had an IC50 of 0.35 µM.
